According to article PMC10192561 (Frontiers in Pharmacology, 2023):
Entries after “also recorded” stand apart in the source; their conditions may differ. Like-named read-outs stand apart in the source and are kept apart here. Blank lines part the entries; values can stand above or below the molecule they belong to.

Columns and labels:
[1] = Pharmacokinetics of flumatinib and M1 in SD rats with or without isavuconazole; format: in vivo, Sprague-Dawley male rats; conditions: for AUC(0-inf) / AUC(0-t) / Cmax / Tmax / half-life / CL/F / MRT last / MRT inf: male, Sprague-Dawley, rat, plasma, po, 60 mg/kg; for CL/F: read-out: CLz/F (converted); for MRT last: read-out: MRT0→t; for MRT inf: read-out: MRT0→∞
Experimental: Quantification of the analytes was made by using a Waters XEVO TQS triple quadruple mass spectrometer with a multiple reaction monitoring (MRM) in positive ion mode. The mobile phase was consisted of 0.1% formic acid aqueous solution (A) and acetonitrile (B) at a flow rate of 0.4 mL/min. An elution program of 90% A (0–0.5 min), 90%–10% A (0.5–1.0 min), 10% A (1–1.5 min), 10%–90% A (1.5–1.6 min) and 90% A (1.6–2 min) was performed. The whole elution took 2 min. During the analysis, the temperature of the column and autosampler rack was controlled at 40°C and 10°C, respectively.
Sprague–Dawley male rats (SD male rats, 200 ± 20 g) were purchased from the Animal Experimental Center of The First Affiliated Hospital of Wenzhou Medical University (Zhejiang, China). […] The rats in both groups started fasting for 12 h ahead of the experiment, but were free to water. […] Tail vein blood samples were collected from rats in both groups at multiple time points (0.67, 1, 1.5, 2, 3, 4, 6, 8, 12, and 24 h). Subsequently, an additional 300 μL acetonitrile and 20 μL dasatinib (200 ng/mL) were added to 100 μL plasma. Then the mixture was vortexed to mix thoroughly for 2 min and centrifuged at 13,000 rpm for 10 min to obtain the final supernatant for UPLC-MS/MS analysis.
IC50 and enzyme kinetic parameters were obtained using GraphPad Prism 8.0 software (GraphPad software Inc., CA, United States). Non-compartmental analysis was performed by using Drugs and Statistics (DAS) software (version 3.0 software, Shanghai University of Traditional Chinese Medicine, China) to obtain pharmacokinetic profiles. Mean plasma concentration-time curves were generated using Origin 8.0, and the parameters were statistically investigated between groups using independent samples t-test by SPSS 24.0 software (SPSS Inc., Chicago, IL, United States). All data were expressed as mean ± SD and p < 0.05 was considered statistically significant.

[2] = test system: flumatinib metabolism in RLM; test: Inhibition of flumatinib metabolism in rat liver microsome incubation (UPLC-MS/MS); conditions: rat, rat liver microsomes
[3] = target: flumatinib metabolism in HLM (Homo sapiens, UniProt P08684); test: Inhibition of flumatinib metabolism in human liver microsome incubation (UPLC-MS/MS)
[4] = test system: rat liver microsomes (RLM); test: Michaelis-Menten kinetics of flumatinib metabolism in RLM; format: in vitro ADME; conditions: flumatinib as substrate, RLM 0.4 mg/mL
Experimental: An in vitro liver microsome incubation system was set up, then the drug was added to the system and incubated for […] as to determine the metabolism of the drug by the microsomes. […] The NADPH-free mixture was preincubated at 37°C for 5 min, followed by the addition of 1 mM NADPH to activate the reaction. The mixture was incubated at 37 °C for 40 min until 20 μL of IS solution (200 ng/mL) and 400 μL of cool acetonitrile were added. It was then centrifuged at 13,000 rpm for 5 min. After that, 100 μL of the supernatant was taken to conduct the analysis by UPLC-MS/MS.

[5] = test system: rat liver microsomes (RLM); test: Inhibition of flumatinib metabolism in rat liver microsome incubation (UPLC-MS/MS); conditions: flumatinib metabolism in RLM
[6] = target: recombinant human CYP3A4 (rCYP3A4) (Homo sapiens, UniProt P08684); test: Inhibition of flumatinib metabolism in recombinant human CYP3A4 incubation (UPLC-MS/MS)
[7] = target: flumatinib metabolism in HLM (CYP3A4; ketoconazole as positive control) (Homo sapiens, UniProt P08684); test: Inhibition of flumatinib metabolism in human liver microsome incubation (UPLC-MS/MS); conditions: human liver microsomes, probe flumatinib […] (at Km)
[8] = set-up: method as in McCarthy et al., 2018; conditions: co-administration with isavuconazole; ref McCarthy et al., 2018; cited from earlier work
[9] = group A: 60 mg/kg flumatinib dosed orally alone
[10] = group B: 20 mg/kg isavuconazole and 60 mg/kg flumatinib dosed orally
[11] = probe flumatinib (2.17 µM in RLM, at Km)
[12] = with 20 mg/kg isavuconazole vs flumatinib alone

Chain of flumatinib metabolism in HLM (P08684 2-503): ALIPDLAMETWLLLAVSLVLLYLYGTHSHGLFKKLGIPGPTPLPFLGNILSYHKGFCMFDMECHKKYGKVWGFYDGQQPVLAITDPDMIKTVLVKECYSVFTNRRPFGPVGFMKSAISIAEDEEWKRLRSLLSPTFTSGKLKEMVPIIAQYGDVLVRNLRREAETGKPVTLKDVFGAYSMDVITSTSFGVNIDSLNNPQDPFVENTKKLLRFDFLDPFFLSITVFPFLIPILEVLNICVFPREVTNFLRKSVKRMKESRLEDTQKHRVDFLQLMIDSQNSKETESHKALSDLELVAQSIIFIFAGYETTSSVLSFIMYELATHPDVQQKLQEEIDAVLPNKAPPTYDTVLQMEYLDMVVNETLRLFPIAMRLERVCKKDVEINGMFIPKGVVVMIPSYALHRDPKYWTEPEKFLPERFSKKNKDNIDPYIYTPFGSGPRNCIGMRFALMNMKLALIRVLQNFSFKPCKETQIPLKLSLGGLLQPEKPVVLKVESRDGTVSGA
Chain of recombinant human CYP3A4 (rCYP3A4) (P08684 whole entry): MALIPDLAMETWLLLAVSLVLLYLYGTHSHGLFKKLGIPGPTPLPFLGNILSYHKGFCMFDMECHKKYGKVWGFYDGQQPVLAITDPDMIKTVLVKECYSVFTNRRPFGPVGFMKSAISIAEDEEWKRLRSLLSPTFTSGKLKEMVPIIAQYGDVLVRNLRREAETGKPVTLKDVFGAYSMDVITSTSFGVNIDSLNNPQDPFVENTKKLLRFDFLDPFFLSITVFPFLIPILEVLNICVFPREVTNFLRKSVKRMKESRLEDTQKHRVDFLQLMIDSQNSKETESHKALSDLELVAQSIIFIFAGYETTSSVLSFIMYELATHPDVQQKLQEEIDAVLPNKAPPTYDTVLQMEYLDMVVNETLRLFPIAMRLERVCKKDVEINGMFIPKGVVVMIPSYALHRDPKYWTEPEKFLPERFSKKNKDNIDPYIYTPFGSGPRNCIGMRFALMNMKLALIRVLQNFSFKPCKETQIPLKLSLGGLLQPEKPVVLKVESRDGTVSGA
Chain of flumatinib metabolism in HLM (CYP3A4; ketoconazole as positive control) (P08684 2-503): as the sequence (P08684 2-503) above

AUC(0-inf) [1, 9]: 3040 ± 664 ng·h/mL | AUC(0-t) [1, 9]: 2750 ± 887 ng·h/mL | Cmax [1, 9]: 282 ± 36.8 ng/mL | Tmax [1, 9]: 6 ± 2.74 h | half-life [1, 9]: 4.04 ± 2.65 h | CL/F [1, 9]: 340 mL/min/kg | MRT last [1, 9]: 6.82 ± 1.94 h | MRT inf [1, 9]: 7.66 ± 2.01 h | AUC(0-inf) [1, 10]: 5710 ± 744 ng·h/mL | AUC(0-t) [1, 10]: 4730 ± 1290 ng·h/mL | Cmax [1, 10]: 481 ± 33.3 ng/mL | Tmax [1, 10]: 4.4 ± 1.52 h | half-life [1, 10]: 4.88 ± 2.91 h | CL/F [1, 10]: 177 mL/min/kg | MRT last [1, 10]: 6.87 ± 1.33 h | MRT inf [1, 10]: 9.2 ± 3.59 h | AUC(0–t), group B relative to group A [1, 12]: 1.72 fold | AUC(0–∞), group B relative to group A [1, 12]: 1.88 fold | CLz/F lower than group A [1, 12]: 48% | Cmax, group B relative to group A [1, 12]: 1.70 fold | Km [4]: 2.2 µM
SMILES: Cc1ncc(NC(=O)c2ccc(CN3CCN(C)CC3)c(C(F)(F)F)c2)cc1Nc1nccc(-c2cccnc2)n1 [flumatinib]

IC50 at 40 min ([2]; probe flumatinib 2.17 µM (at Km)): 0.62 µM | Ki [5]: 1.44 µM | α [6]: 0.71 | IC50 at 40 min [7]: 6.66 µM
SMILES: C[C@@H](c1nc(-c2ccc(C#N)cc2)cs1)[C@](O)(Cn1cncn1)c1cc(F)ccc1F [isavuconazole]
Inhibition type [5]: mixed inhibitory mechanisms; also recorded: mixed type; also recorded: a mixture of competitive and non-competitive inhibition; also recorded: Mixed inhibition | α [5]: 0.52 | Inhibition type [6]: mixed inhibitory mechanisms; also recorded: mixed type; also recorded: a mixture of competitive and non-competitive inhibition; also recorded: Mixed inhibition

Ki [5]: 0.33 µM
SMILES: CC(=O)N1CCN(c2ccc(OCC3COC(Cn4ccnc4)(c4ccc(Cl)cc4Cl)O3)cc2)CC1 (stereo not drawn) [ketoconazole]
Inhibition type [5]: mixed inhibitory mechanisms; also recorded: Mixed inhibition

IC50 at 40 min [2, 11]: 1.53 µM | IC50 at 40 min ([3]; human liver microsomes, probe flumatinib ([…] in HLM, at Km)): 1.72 µM
SMILES: CC[C@@H]([C@H](C)O)n1ncn(-c2ccc(N3CCN(c4ccc(OC[C@@H]5CO[C@@](Cn6cncn6)(c6ccc(F)cc6F)C5)cc4)CC3)cc2)c1=O [posaconazole]

The next lines start with the molecule.

SMILES: Cc1ncc(NC(=O)c2ccc(CN3CCNCC3)c(C(F)(F)F)c2)cc1Nc1nccc(-c2cccnc2)n1 [M1, N-desmethyl flumatinib]
effect of isavuconazole on pharmacokinetic parameters of the metabolite ([1]; combination vs control group): no effect; also recorded: No statistical significances | AUC(0-inf) [1, 9]: 314 ± 134 ng·h/mL | AUC(0-t) [1, 9]: 282 ± 135 ng·h/mL | Cmax [1, 9]: 19.9 ± 32.8 ng/mL | Tmax [1, 9]: 2.6 ± 1.14 h | half-life [1, 9]: 5.28 ± 1.24 h | CL/F [1, 9]: 3940 mL/min/kg | MRT last [1, 9]: 6.73 ± 1.68 h | MRT inf [1, 9]: 8.86 ± 1.39 h | AUC(0-inf) [1, 10]: 395 ± 63.1 ng·h/mL | AUC(0-t) [1, 10]: 352 ± 49.8 ng·h/mL | Cmax [1, 10]: 31.9 ± 3.98 ng/mL | Tmax [1, 10]: 5 ± 2.45 h | half-life [1, 10]: 7.29 ± 2.01 h | CL/F [1, 10]: 2580 mL/min/kg | MRT last [1, 10]: 8.2 ± 0.19 h | MRT inf [1, 10]: 11.2 ± 1.53 h

SMILES: OC(Cn1cncn1)(Cn1cncn1)c1ccc(F)cc1F [fluconazole]
IC50 at 40 min [2, 11]: 24.8 µM | IC50 at 40 min [3]: 92.6 µM

SMILES: CCC(C)n1ncn(-c2ccc(N3CCN(c4ccc(OCC5COC(Cn6cncn6)(c6ccc(Cl)cc6Cl)O5)cc4)CC3)cc2)c1=O (stereo not drawn) [itraconazole]
IC50 at 40 min [2, 11]: 1.06 µM | IC50 at 40 min [3]: 11.6 µM

SMILES: CO[C@H]1C[C@@H]2CC[C@@H](C)[C@@](O)(O2)C(=O)C(=O)N2CCCC[C@H]2C(=O)O[C@H]([C@H](C)C[C@@H]2CC[C@@H](O)[C@H](OC)C2)CC(=O)[C@H](C)/C=C(\C)[C@@H](O)[C@@H](OC)C(=O)[C@H](C)C[C@H](C)/C=C/C=C/C=C/1C [sirolimus]
AUC increase when combined with isavuconazole [8]: 84%

SMILES: C=CC[C@@H]1/C=C(\C)C[C@H](C)C[C@H](OC)[C@H]2O[C@@](O)(C(=O)C(=O)N3CCCC[C@H]3C(=O)O[C@H](/C(C)=C/[C@@H]3CC[C@@H](O)[C@H](OC)C3)[C@H](C)[C@@H](O)CC1=O)[C@H](C)C[C@@H]2OC [tacrolimus]
AUC increase when combined with isavuconazole [8]: 125%

SMILES: C[C@@H](c1ncncc1F)[C@](O)(Cn1cncn1)c1ccc(F)cc1F [voriconazole]
IC50 at 40 min [2, 11]: 12.4 µM | IC50 at 40 min [3]: 325 µM
